Assays:
Bemisia tabaci [1] = assay: Test Example 1: cabbage leaf disc immersion test, life or death of Bemisia tabaci imagoes after 4 days; format: in vivo; conditions: foliar, 96 h, compound X alone 1000 ppm, cabbage leaf disc immersed 30 seconds, read-out: Pest controlling value (%)
Protocol: Ten parts of the compound X was dissolved in 40 parts of xylene and 40 parts of N,N-dimethylformamide, and thereto was added 10 parts of Sorpol 3005X (manufactured by TOHO Chemical Industry Co., LTD.). The mixture was stirred well to prepare a formulation. Separately, 10 parts of any one of the compound I-(5), the compound I-(34), the compound I-(68), the compound I-(70), the compound I-(74), the compound I-(115), the compound I-(117), the compound I-(119), the compound I-(204) and the compound I-(213) was dissolved in 40 parts of xylene and 40 parts of N,N-dimethylformamide, and thereto was added 10 parts of Sorpol 3005X (manufactured by TOHO Chemical Industry Co., LTD.). The mixture was stirred well to prepare a formulation. The formulation of the compound X was diluted with water to a predetermined concentration (1000 ppm). […] After 4 days, the life or death of the Bemisia tabaci imagoes was determined, and a controlling value was calculated by the following equation: […] wherein Cb: the number of insects in a non-treated section before treatment, Cai: the number of insects in a non-treated section on observation, Tb: the number of insects in a treated-section before treatment, Tai: the number of insects in a treated section on observation. […]

Bemisia tabaci [2] = assay: Test Example 2: cabbage leaf disc immersion test, life or death of Bemisia tabaci imagoes after 2 days; format: in vivo; conditions: compound X alone 2000 ppm
Protocol: Ten parts of the compound I-(138) was dissolved in 40 parts of xylene and 40 parts of N,N-dimethylformamide, and thereto was added 10 parts of Sorpol 3005X (manufactured by TOHO Chemical Industry Co., LTD.). The mixture was stirred well to prepare a formulation.
The formulation of the compound X prepared in Test Example 1 was diluted with water to a predetermined concentration (2000 ppm). To the water dilution was added the formulation of the compound I-(138) so that the concentration of the compound I became a predetermined concentration (800 ppm). To the resulting dilution was added 1/5000 by volume of a spreading agent (New Rinou manufactured by Nihon Nohyaku) to prepare a test diluted solution.
Separately, the formulation of the compound I-(138) was diluted with water to a predetermined concentration (800 ppm). To the water dilution was added 1/5000 by volume of a spreading agent (New Rinou manufactured by Nihon Nohyaku) to prepare a test diluted solution. […]
On the other hand, 3 mL of 1% agar was put in a glass cup having an internal diameter of 2.6 cm and a height of 4.5 cm. […] After 2 days, the life or death of the Bemisia tabaci imagoes was determined, and a controlling value was calculated by the above-described equation.

## CC#CCOc1cc(Cc2ccccc2Cl)ncn1 [compound X, 4-(2-chlorobenzyl)-6-(2-butynyloxy)pyrimidine]
Bemisia tabaci [1]
  pest or weed control at 1000 ppm: 25%
Bemisia tabaci [2]
  Pest controlling value (%): 26%

— patent US20100137314A1, “HARMFUL ORGANISM CONTROL COMPOSITION” (priority 2007, published 2010)
